# What was measured:
# Format in all cases: functional
# [1] = tested on: Radical scavenging activity; experiment: Antioxidant activity assessed as DPPH free radical scavenging activity by spectrophotometry
# [2] = tested on: Radical scavenging activity; experiment: Antioxidant activity assessed as DPPH free radical scavenging activity at 20 ug/ml by spectrophotometry
# [3] = Antioxidant activity assessed as reduction of ferric ion to ferrous ion by FRAP assay
IC50 [1] [µg/mL],IC50 [3] [µg/mL],SMILES,Activity [2] [%]
12.17,25.21,O=c1[nH]c(=S)[nH]c2c1C(c1ccc([N+](=O)[O-])cc1)Nc1cc3c(cc1-2)NC(c1ccc([N+](=O)[O-])cc1)c1c-3[nH]c(=S)[nH]c1=O (stereo not drawn),82.3
12.62,32.1,O=c1[nH]c(=S)[nH]c2c1C(c1ccccc1)Nc1cc3c(cc1-2)NC(c1ccccc1)c1c-3[nH]c(=S)[nH]c1=O (stereo not drawn),79.6
11.99,24.46,O=c1[nH]c(=S)[nH]c2c1C(c1ccccc1Cl)Nc1cc3c(cc1-2)NC(c1ccccc1Cl)c1c-3[nH]c(=S)[nH]c1=O (stereo not drawn),84.1
13.56,26.25,O=c1[nH]c(=S)[nH]c2c1C(c1ccc([N+](=O)[O-])cc1)Nc1nc3c(cc1-2)-c1[nH]c(=S)[nH]c(=O)c1C(c1ccc([N+](=O)[O-])cc1)N3 (stereo not drawn),74
13.56,31.39,O=c1[nH]c2c(c(=O)[nH]1)C(c1ccccc1[N+](=O)[O-])Nc1nc3c(cc1-2)-c1[nH]c(=O)[nH]c(=O)c1C(c1ccccc1[N+](=O)[O-])N3 (stereo not drawn),74
12.15,32.76,O=c1[nH]c2c(c(=O)[nH]1)C(c1ccccc1)Nc1cc3c(cc1-2)NC(c1ccccc1)c1c-3[nH]c(=O)[nH]c1=O (stereo not drawn),82
12.68,33.7,O=c1[nH]c(=S)[nH]c2c1C(c1cccc([N+](=O)[O-])c1)Nc1cc3c(cc1-2)NC(c1cccc([N+](=O)[O-])c1)c1c-3[nH]c(=S)[nH]c1=O (stereo not drawn),79.3
14.24,34.9,O=c1[nH]c2c(c(=O)[nH]1)C(c1cccc([N+](=O)[O-])c1)Nc1nc3c(cc1-2)-c1[nH]c(=O)[nH]c(=O)c1C(c1cccc([N+](=O)[O-])c1)N3 (stereo not drawn),70.2
12.07,29.08,O=c1[nH]c2c(c(=O)[nH]1)C(c1ccccc1[N+](=O)[O-])Nc1cc3c(cc1-2)NC(c1ccccc1[N+](=O)[O-])c1c-3[nH]c(=O)[nH]c1=O (stereo not drawn),82.7
12.05,24.01,O=c1[nH]c2c(c(=O)[nH]1)C(c1ccccc1Cl)Nc1cc3c(cc1-2)NC(c1ccccc1Cl)c1c-3[nH]c(=O)[nH]c1=O (stereo not drawn),84
11.8,23.21,O=c1[nH]c2c(c(=O)[nH]1)C(c1ccc(Cl)cc1)Nc1cc3c(cc1-2)NC(c1ccc(Cl)cc1)c1c-3[nH]c(=O)[nH]c1=O (stereo not drawn),85.2
12.39,33.28,O=c1[nH]c2c(c(=O)[nH]1)C(c1cccc([N+](=O)[O-])c1)Nc1cc3c(cc1-2)NC(c1cccc([N+](=O)[O-])c1)c1c-3[nH]c(=O)[nH]c1=O (stereo not drawn),81.7
14.25,33.5,O=c1[nH]c(=S)[nH]c2c1C(c1ccccc1)Nc1nc3c(cc1-2)-c1[nH]c(=S)[nH]c(=O)c1C(c1ccccc1)N3 (stereo not drawn),70.4
12.44,25.01,O=c1[nH]c2c(c(=O)[nH]1)C(c1ccc([N+](=O)[O-])cc1)Nc1cc3c(cc1-2)NC(c1ccc([N+](=O)[O-])cc1)c1c-3[nH]c(=O)[nH]c1=O (stereo not drawn),80.9
12.36,25,O=c1[nH]c(=S)[nH]c2c1C(c1ccc(Cl)cc1)Nc1nc3c(cc1-2)-c1[nH]c(=S)[nH]c(=O)c1C(c1ccc(Cl)cc1)N3 (stereo not drawn),80.9
13.6,30.47,O=c1[nH]c(=S)[nH]c2c1C(c1ccccc1[N+](=O)[O-])Nc1nc3c(cc1-2)-c1[nH]c(=S)[nH]c(=O)c1C(c1ccccc1[N+](=O)[O-])N3 (stereo not drawn),73.6
12.42,25.51,O=c1[nH]c2c(c(=O)[nH]1)C(c1ccccc1Cl)Nc1nc3c(cc1-2)-c1[nH]c(=O)[nH]c(=O)c1C(c1ccccc1Cl)N3 (stereo not drawn),80.8
14.34,34.93,O=c1[nH]c(=S)[nH]c2c1C(c1cccc([N+](=O)[O-])c1)Nc1nc3c(cc1-2)-c1[nH]c(=S)[nH]c(=O)c1C(c1cccc([N+](=O)[O-])c1)N3 (stereo not drawn),70.1
12.15,29.5,O=c1[nH]c(=S)[nH]c2c1C(c1ccccc1[N+](=O)[O-])Nc1cc3c(cc1-2)NC(c1ccccc1[N+](=O)[O-])c1c-3[nH]c(=S)[nH]c1=O (stereo not drawn),82
18.91,,O=c1[nH]c2c(c(=O)[nH]1)C(c1ccccc1)c1ccccc1N2 (stereo not drawn),
12.41,25.07,O=c1[nH]c(=S)[nH]c2c1C(c1ccccc1Cl)Nc1nc3c(cc1-2)-c1[nH]c(=S)[nH]c(=O)c1C(c1ccccc1Cl)N3 (stereo not drawn),80.6
12.35,24.41,O=c1[nH]c2c(c(=O)[nH]1)C(c1ccc(Cl)cc1)Nc1nc3c(cc1-2)-c1[nH]c(=O)[nH]c(=O)c1C(c1ccc(Cl)cc1)N3 (stereo not drawn),81.1
13.48,26.06,O=c1[nH]c2c(c(=O)[nH]1)C(c1ccc([N+](=O)[O-])cc1)Nc1nc3c(cc1-2)-c1[nH]c(=O)[nH]c(=O)c1C(c1ccc([N+](=O)[O-])cc1)N3 (stereo not drawn),74.2
14.21,33.91,O=c1[nH]c2c(c(=O)[nH]1)C(c1ccccc1)Nc1nc3c(cc1-2)-c1[nH]c(=O)[nH]c(=O)c1C(c1ccccc1)N3 (stereo not drawn),70.6
11.93,24.11,O=c1[nH]c(=S)[nH]c2c1C(c1ccc(Cl)cc1)Nc1cc3c(cc1-2)NC(c1ccc(Cl)cc1)c1c-3[nH]c(=S)[nH]c1=O (stereo not drawn),84.4

# Reference: ChEMBL document CHEMBL2396516, “Synthesis of novel bis(pyrimido[5,4-c]quinoline-2,4(1H,3H)-dione) and its derivatives: evaluation of their antioxidant properties” (Bioorg Med Chem Lett, 2013)
